The test system of data set [1] is NCI-H1975 cells (EGFR T790M and L858R). The data set is described as follows: Cell survival in NCI-H1975 cells (Cell Counting Kit-8). It counts as cell-based, human. Conditions: Homo sapiens, 72 hours. As to the method: Human lung cancer cell line NCI-H1975 which harbors both the T790M and the L858R mutations in EGFR was obtained from American Type Culture Collection. NCI-H1975 (10,000 cells/well) were cultured in 96-well plates and maintained at 37° C. for several hours. The cells were incubated at 37° C. for 72 hours with various concentrations of compound 226 of the invention, 17AAG or DMAG. 17AAG and DMAG are Hsp90 inhibitors that are currently in clinical trials and are used here as positive controls for Hsp90 inhibition. Cell survival was measured with Cell Counting Kit-8 (Dojindo Laboratories, Cat # CK04).

In data set [2] the test system is Karpas-299 cells (NPM-ALK). Put plainly: Cell survival in Karpas-299 cells (Cell Counting Kit-8). It counts as cell-based, human. Conditions: Homo sapiens, 72 hours. As for the experimental part: Growth of this tumor cell line is dependent upon the expression of the NPM-ALK fusion protein. Karpas-299 cells (20,000 cells/well) were cultured in 96-well plates and maintained at 37° C. for several hours. The cells were incubated at 37° C. for 72 hours with various concentrations of compound 226 of the invention, 17AAG, and 17DMAG. 17AAG and 17DMAG are Hsp90 inhibitors that are currently in clinical trials and are used here as positive controls for Hsp90 inhibition. Cell survival was measured with Cell Counting Kit-8 (Dojindo Laboratories, Cat # CK04).
For orientation: Tetrazolium assays rely on reduction of a dye to a coloured formazan, in cell work by metabolically active cells.

Data set [3] deals with human chronic myelogenous leukemia tumor cell line K-562. The data set is described as follows: K-562 (Bcr-Abl) SCID mouse xenograft model. Particulars: 35 mg/kg i.v. 5 times per week, day 17. It is filed as in vivo, human (xenograft in SCID mouse). As for the experimental part: Growth of this tumor cell line is dependent upon the expression of the Bcr-Abl fusion protein (C. Gambacarti-Passerini et al., Blood Cells Mol. Dis. 23:380-394, 1997). The cells were cultured in growth media prepared with Iscove's Modified Dulbecco's Media, 10% fetal bovine serum (FBS), 1% 100× Penicillin-Streptomycin, 1% 100× sodium pyruvate and 1% 100×MEM non-essential amino acids. FBS was obtained from ATCC and all other reagents were obtained from Invitrogen Corp. (Carlsbad, Calif., USA). Cells that had been cryopreserved in liquid nitrogen were rapidly thawed at 37° C. and transferred to a tissue culture flask containing growth media and then incubated at 37° C. in a 5% CO2 incubator. […]
Seven to eight week old, female CB17/Icr-Prkdc^scid/Crl (SCID) mice were obtained from Charles River Laboratories (Wilmington, Mass., USA). […] To implant K-562 tumor cells into SCID mice, cell cultures were centrifuged to pellet the cells, the supernatant was aspirated, the cell pellet was resuspended in 10 ml of growth media and the cell number determined using a hemocytometer. […]
Tumors were then permitted to develop in vivo until the majority reached 100-200 mm^3 in tumor volume, which typically required 1-2 weeks following implantation. […] Tumor volumes (V) were calculated by caliper measurement of the width (W), length (L) and thickness (T) of tumors using the following formula: V=0.5236×(L×W×T). […]
For orientation: A xenograft is tissue or cells of one species grown in another, often human tumour cells in immunodeficient mice.

Data set [4] relates to Kasumi-1 cells (c-Kit N822K). Put plainly: Cell survival in Kasumi-1 cells (Cell Counting Kit-8). It counts as cell-based, human. Particulars: Homo sapiens, 72 hours. As to the method:
Kasumi-1 cells (20,000 cells/well) were cultured in 96-well plates and maintained at 37° C. for several hours. […] 17AAG and DMAG are Hsp90 inhibitors that are currently in clinical trials and are used here as positive controls for Hsp90 inhibition. […] Cell survival was measured with Cell Counting Kit-8 (Dojindo Laboratories, Cat # CK04).

From US20080004266A1, “Method for treating proliferative disorders associated with protooncogene products” (priority 2006, published 2008) come the findings set out here.

Where “and” joins values, the source holds several entries; their conditions need not be identical. Equal values may be shown once.

In general, IC50 refers to the concentration that inhibits the measured activity by half. Higher therefore signals a need for much substance.

As to `CC(C)c1cc(-c2nnc(O)n2-c2ccc3c(ccn3C)c2)c(O)cc1O` [Compound 226, 3-(2,4-di-hydroxy-5-isopropyl-phenyl)-4-(1-methyl-indol-5-yl)-5-hydroxy-[1,2,4] triazole], the values for the IC50 in data set [1], in data set [2] and in data set [4] were 0.016 µM, 0.01 µM and 0.004 µM, respectively. For the same compound, the “average bodyweight loss relative to the start of the study” value in data set [3] was −12.4% (+/−1.4 SEM). Also, the “% T/C value” in data set [3] (SCID mice, 6 doses, 35 mg/kg) was 25% and 24.7%.
